This data set in a line: Aqueous solubility assay, Protocol A, nephelometry method. It is filed as physicochemical. The settings on record: PBS with 5% DMSO, aqueous with cosolvent or surfactant or cyclodextrin, kinetic from dmso stock, PBS pH 7.4, 5% DMSO, 23° C. The protocol:
Aqueous solubility of compounds was determined by nephelometry or by shake-flask method as follows:
Protocol A, Nephelometry Method:
Solubility of compounds was measured in PBS (pH 7.4), 5% DMSO at 23° C. Nepheloskan Ascent (Thermo Electron Corporation) nephelometer was used for measurement of light scattering. Tested compounds were dissolved in DMSO to 10 mM. Prior to measurement the compounds were further diluted with PBS in the wells to final compound concentrations of 100, 70, 50, 35, 25, 17, 12 and <10 μg/ml.
The plates were incubated at room temperature for 24 hours to reach equilibrium and the scattered light was measured. Assay validation: Aqueous solubility of acetylsalicylic acid was determined to validate the assay. […] Aqueous solubilities of examples and reference compounds are listed below in Table 2.

Converted amounts (≈) assume the structure as drawn.

As usually defined, the solubility is how much of the substance goes into solution per volume. Read a high solubility as a readily soluble substance. As for `CC(C)c1onc(-c2c(Cl)cccc2Cl)c1COc1ccc(Oc2ccc(C(=O)O)cc2)cc1` [Compound A, reference compound], the concentration in solution (solubility at 24 h) was 24 µM (≈ 12 µg/mL).

Values taken from patent publication US8193192B2, “Heterocyclic FXR binding compounds” (Phenex Pharmaceuticals AG, priority 2006, dated 2012).
